This is an account of results in patent US20240423207A1, “PICOLINAMIDE COMPOUNDS WITH FUNGICIDAL ACTIVITY” (CORTEVA AGRISCIENCE LLC, priority 2014, published 2024).

Holding throughout (format): in vivo
One test has as its system Leptosphaeria nodorum. Description: Wheat Glume Blotch (LEPTNO) fungicidal activity on wheat seedlings. The conditions noted are these: Parastagonospora nodorum, 24 h, 1 Day Protectant, read-out: LEPTNO 1 DP disease control. How it is done:
Technical grades of materials were dissolved in acetone, which were then mixed with nine volumes of water (H2O) containing 110 ppm Triton X-100. The fungicide solutions were applied onto wheat seedlings using an automated booth sprayer to run-off. All sprayed plants were allowed to air dry prior to further handling. All fungicides were evaluated using the aforementioned method for their activity vs. all target diseases, unless stated otherwise. Wheat leaf blotch and brown rust activity were also evaluated using track spray applications, in which case the fungicides were formulated as EC formulations, containing 0.1% Trycol 5941 in the spray solutions. Wheat plants (variety Yuma) were grown from seed in a greenhouse in 50% mineral soil/50% soil-less Metro mix until the first leaf was fully emerged, with 7-10 seedlings per pot. These plants were inoculated with an aqueous spore suspension of Septoria tritici either prior to or after fungicide treatments. After inoculation the plants were kept in 100% relative humidity (one day in a dark dew chamber followed by two to three days in a lighted dew chamber at 20° C.) to permit spores to germinate and infect the leaf. The plants were then transferred to a greenhouse set at 20° C. for disease to develop. When disease symptoms were fully expressed on the 1st leaves of untreated plants, infection levels were assessed on a scale of 0 to 100 percent disease severity. Percent disease control was calculated using the ratio of disease severity on treated plants relative to untreated plants. Example C: Evaluation of Fungicidal Activity: Wheat Glume Blotch (Leptosphaeria nodorum; Bayer code […]) Wheat plants (variety Yuma) were grown from seed in a greenhouse in 50% mineral soil/50% soil-less Metro mix until the first leaf was fully emerged, with 7-10 seedlings per pot. These plants were inoculated with an aqueous spore suspension of Leptosphaeria nodorum 24 h after fungicide treatments. After inoculation the plants were kept in 100% relative humidity (one day in a dark dew chamber followed by two days in a lighted dew chamber at 20° C.) to permit spores to germinate and infect the leaf. The plants were then transferred to a greenhouse set at 20° C. for disease to develop. Fungicide formulation, application and disease assessment followed the procedures as described in the Example A.

In the next test the test system is Rhyncosporium secalis. The test can be described thus: Barley Scald (RHYNSE) fungicidal activity on barley seedlings. The conditions noted are these: Hordeum vulgare, 24 h, 1 Day Protectant, read-out: RHYNSE 1 DP disease control. How it is done: Technical grades of materials were dissolved in acetone, which were then mixed with nine volumes of water (H2O) containing 110 ppm Triton X-100. The fungicide solutions were applied onto wheat seedlings using an automated booth sprayer to run-off. All sprayed plants were allowed to air dry prior to further handling. All fungicides were evaluated using the aforementioned method for their activity vs. all target diseases, unless stated otherwise. Wheat leaf blotch and brown rust activity were also evaluated using track spray applications, in which case the fungicides were formulated as EC formulations, containing 0.1% Trycol 5941 in the spray solutions. Wheat plants (variety Yuma) were grown from seed in a greenhouse in 50% mineral soil/50% soil-less Metro mix until the first leaf was fully emerged, with 7-10 seedlings per pot. These plants were inoculated with an aqueous spore suspension of Septoria tritici either prior to or after fungicide treatments. After inoculation the plants were kept in 100% relative humidity (one day in a dark dew chamber followed by two to three days in a lighted dew chamber at 20° C.) to permit spores to germinate and infect the leaf. The plants were then transferred to a greenhouse set at 20° C. for disease to develop. When disease symptoms were fully expressed on the 1st leaves of untreated plants, infection levels were assessed on a scale of 0 to 100 percent disease severity. Percent disease control was calculated using the ratio of disease severity on treated plants relative to untreated plants. Example G: Evaluation of Fungicidal Activity: Barley Scald (Rhyncosporium secalis; Bayer code […]) Barley seedlings (variety Harrington) were propagated in soil-less Metro mix, with each pot having 8 to 12 plants, and used in the test when the first leaf was fully emerged. Test plants were inoculated by an aqueous spore suspension of Rhyncosporium secalis 24 h after fungicide treatments. After inoculation the plants were kept in a dew room at 20° C. with 100% relative humidity for 48 h. The plants were then transferred to a greenhouse set at 20° C. for disease to develop. Fungicide formulation, application and disease assessment on the sprayed leaves followed the procedures as described in the Example A.

A further test deals with Alternaria solani. The test can be described thus: Tomato Early Blight (ALTESO) fungicidal activity on tomato plants. The conditions noted are these: 24 h, 1 Day Protectant, read-out: ALTESO 1 DP disease control. How it is done:
Technical grades of materials were dissolved in acetone, which were then mixed with nine volumes of water (H2O) containing 110 ppm Triton X-100. The fungicide solutions were applied onto wheat seedlings using an automated booth sprayer to run-off. All sprayed plants were allowed to air dry prior to further handling. All fungicides were evaluated using the aforementioned method for their activity vs. all target diseases, unless stated otherwise. Wheat leaf blotch and brown rust activity were also evaluated using track spray applications, in which case the fungicides were formulated as EC formulations, containing 0.1% Trycol 5941 in the spray solutions. Wheat plants (variety Yuma) were grown from seed in a greenhouse in 50% mineral soil/50% soil-less Metro mix until the first leaf was fully emerged, with 7-10 seedlings per pot. These plants were inoculated with an aqueous spore suspension of Septoria tritici either prior to or after fungicide treatments. After inoculation the plants were kept in 100% relative humidity (one day in a dark dew chamber followed by two to three days in a lighted dew chamber at 20° C.) to permit spores to germinate and infect the leaf. The plants were then transferred to a greenhouse set at 20° C. for disease to develop. When disease symptoms were fully expressed on the 1st leaves of untreated plants, infection levels were assessed on a scale of 0 to 100 percent disease severity. Percent disease control was calculated using the ratio of disease severity on treated plants relative to untreated plants. Example I: Evaluation of Fungicidal Activity: Tomato Early Blight (Alternaria solani; Bayer code […]) Tomato plants (variety Outdoor Girl) were propagated in soil-less Metro mix, with each pot having one plant, and used when 12 to 14 days old. Test plants were inoculated with an aqueous spore suspension of Alternaria solani 24 h after fungicide treatments. After inoculation the plants were kept in 100% relative humidity (one day in a dark dew chamber followed by two to three days in a lighted dew chamber at 20° C.) to permit spores to germinate and infect the leaf. The plants were then transferred to a growth room at 22° C. for disease to develop. Fungicide formulation, application and disease assessment on the sprayed leaves followed the procedures as described in the Example A.

SMILES strings stand for the structures.

Regarding `COc1ccnc(C(=O)N[C@@H](C)C(=O)O[C@@H](C)C(c2ccc(F)cc2F)c2ccc(F)cc2F)c1OC(C)=O` [Cmpd 150], the pest or weed control at 100 ppm in the test with Leptosphaeria nodorum, with Rhyncosporium secalis and in the test with Alternaria solani was over 80% in each case.
In the case of `COc1ccnc(C(=O)N[C@@H](C)C(=O)O[C@@H](C)C(c2ccc(F)cc2F)c2ccc(F)cc2F)c1OCOC(C)=O` [Cmpd 148], the pest or weed control at 100 ppm in the test on Leptosphaeria nodorum is over 80%; in the test on Rhyncosporium secalis, over 80%; with Alternaria solani, under 80%.
Regarding `COc1ccnc(C(=O)N[C@@H](C)C(=O)O[C@@H](C)C(c2ccccc2)c2ccccc2)c1OC(=O)C(C)C` [Cmpd 140], the pest or weed control at 100 ppm in the test with Leptosphaeria nodorum and with Alternaria solani was over 80% throughout.
As for `COc1ccnc(C(=O)N[C@@H](C)C(=O)O[C@@H](C)C(c2ccccc2)c2ccccc2)c1OC(C)=O` [Cmpd 139, (S)-(S)-1,1-diphenylpropan-2-yl 2-(3-acetoxy-4-methoxypicolinamido)propanoate], the pest or weed control at 100 ppm in the test on Leptosphaeria nodorum was over 80%; in the test on Rhyncosporium secalis it was over 80%; in the test with Alternaria solani, under 80%.
Turning to `COc1ccnc(C(=O)N[C@@H](C)C(=O)O[C@@H](C)C(c2ccc(F)cc2)c2ccc(F)cc2)c1OCOC(C)=O` [Cmpd 146], the pest or weed control at 100 ppm in the test on Leptosphaeria nodorum, in the test on Rhyncosporium secalis and in the test on Alternaria solani was over 80% in each case.
Regarding `COc1ccnc(C(=O)N[C@@H](C)C(=O)O[C@@H](C)C(c2ccccc2)c2ccccc2)c1OCOC(C)=O` [Cmpd 141, (S)-(S)-1,1-diphenylpropan-2-yl 2-(3-(acetoxymethoxy)-4-methoxypicolinamido)propanoate], the pest or weed control at 100 ppm was over 80% in the test on Leptosphaeria nodorum, over 80% in the test with Rhyncosporium secalis and under 80% with Alternaria solani.
`COc1ccnc(C(=O)N[C@@H](C)C(=O)O[C@@H](C)C(c2ccc(Cl)cc2)c2ccc(Cl)cc2)c1OCOC(C)=O` [Cmpd 176]: the values for the pest or weed control at 100 ppm in the test with Leptosphaeria nodorum, with Rhyncosporium secalis and with Alternaria solani were over 80%, over 80% and under 80%, respectively.
As for `COc1ccnc(C(=O)N[C@@H](C)C(=O)O[C@@H](C)C(c2ccc(Cl)cc2)c2ccc(Cl)cc2)c1OC(C)=O` [Cmpd 174], the pest or weed control at 100 ppm is over 80% in the test on Leptosphaeria nodorum, over 80% with Rhyncosporium secalis and under 80% in the test on Alternaria solani.
Regarding `COc1ccnc(C(=O)N[C@@H](C)C(=O)O[C@@H](C)C(c2ccc(F)cc2)c2ccc(F)cc2)c1OC(C)=O` [Cmpd 145], the pest or weed control at 100 ppm with Leptosphaeria nodorum, in the test on Rhyncosporium secalis and with Alternaria solani was over 80% in each case.
For the molecule `COc1ccnc(C(=O)N[C@@H](C)C(=O)O[C@@H](C)C(c2ccccc2)c2ccccc2)c1OCOC(=O)C(C)C` [Cmpd 142, (S)-(S)-1,1-diphenylpropan-2-yl 2-(3-((isobutyryloxy)methoxy)-4-methoxypicolinamido)propanoate], the pest or weed control at 100 ppm in the test on Leptosphaeria nodorum, in the test on Rhyncosporium secalis and in the test with Alternaria solani was over 80% each time.
